Source: US8846627B2, “Method for treatment of malaria” (The Second Military Medical University, priority 2009, dated 2014)

Key:
[1] = system: chloroquine-resistant (W2) strain of P. falciparum; test: In vitro anti-malarial activity assay (plasmodial LDH activity), W2 clone; assay type: cell-based; details: Plasmodium falciparum, W2; 72 h incubation, LDH readout; read-out: P. falciparum (W2 Clone) IC50
Experimental: In vitro anti-malarial activity of the representative compounds was determined against chloroquine sensitive (D6) and chloroquine-resistant (W2) strains of P. falciparum.
The anti-malarial activity was determined by measuring plasmodial LDH activity as described earlier (Jain, M.; Khan, S. I.; Tekwani, B. L.; Jacob, M. R.; Singh, S.; Singh, P. P.; Jain, R. Synthesis, anti-malarial, antileishmanial, and antimicrobial activities of some 8-quinolinamine analogues. Bioorg. Med. Chem. 2005, 13, 4458-4466). A suspension of red blood cells infected with D6 or W2 strains of P. falciparum (200 with 2% parasitemia and 2% hematocrit in RPMI 1640 medium supplemented with 10% human serum and 60 µg/mL Amikacin) was added to the wells of a 96-well plate containing 10 μL of serially diluted test samples. The plate was flushed with a gas mixture of 90% N2, 5% O2, and 5% CO2 and incubated at 37° C. for 72 h in a modular incubation chamber (Billups-Rothenberg, Calif.). Parasitic LDH activity was determined by using Malstat™ reagent (Flow Inc., Portland, Oreg.) according to the procedure of Makler and Hinrichs (M. T. Makler and D. J. Hinrichs, Measurement of the lactate dehydrogenase activity of Plasmodium falciparum as an assessment of parasitemia. J. Am. J. Trop. Med. Hyg. 1993, 48(2):205-210). Briefly, 20 μl, of the incubation mixture was mixed with 100 μL of the Malstat™ reagent and incubated at room temperature for 30 min Twenty microliters of a 1:1 mixture of NBT/PES (Sigma, St. Louis, Mo.) was then added and the plate was further incubated in the dark for 1 h. The reaction was then stopped by the addition of 100 μL of a 5% acetic acid solution. The plate was read at 650 nm. Artemisinin and chloroquine were included in each assay as the drug controls. IC50 values were computed from the dose-response curves. To determine the selectivity index of anti-malarial activity of compounds, their cytotoxicity in vitro to mammalian cells was also determined. The assay was performed in 96-well tissue culture-treated plates as described earlier (J. Mustafa, S. I. Khan, G. Ma, L. A. Walker and I. A. Khan, Synthesis and Anticancer Activities of Fatty Acid Analogs of Podophyllotoxin. Lipids. 2004, 39(2):167-172). Vero cells (monkey kidney fibroblasts) were seeded to the wells of 96-well plate at a density of 25,000 cells/well and incubated for 24 h. Samples at different concentrations were added and plates were again incubated for 48 h. The number of viable cells was determined by Neutral Red assay. IC50 values were obtained from dose-response curves. Doxorubicin was used as a positive control.

[2] = system: Plasmodium berghei (chloroquine sensitive strain); test: In vivo anti-malarial activity, 4-day suppressive test in infected mice; details: Swiss albino mice; for Day 4 % Suppression / Day 5 % Suppression / Day 6 % Suppression: intragastric
Experimental: Tests were performed in a 4-day suppressive standard test using the methods of David, Thurston and Peters (David, A. F., Philip, J. R., Simon, L. C., Reto B., and Solomon N. Antimalarial drug discovery: Efficacy models for compound screening. Nature Reviews. 2004; 3: 509-520). The plasmodium species, that is most widely employed in rodent malaria parasite-Plasmodium berghei (chloroquine sensitive strain), was used to infect Swiss albino mice for a fourday suppressive test. The P. berghei was subsequently maintained in the laboratory by serial blood passage from mouse to mouse. For the study, a donor mouse with a rising parasitemia of 20% was sacrificed and its blood was collected in a slightly heparinized syringe from the auxiliary vessels. The blood was diluted with Trisodium Citrate (TC) medium so that each 0.2 ml contained approximately 107 infected red cells. Each animal received inoculums of about […], which is expected to produce a steadily rising infection in mice.
Male Swiss albino mice were used. The mice were allowed to acclimatize to the laboratory environment under a controlled temperature of 20° C. and at optimum humidity for at least three days before being subjected to the experiments. All of the mice were divided into groups of six, and infected with malaria parasites.
The infection of the recipient mice was initiated by needle passage of the above mentioned parasite preparation, from the donor to healthy test animals via an intraperitoneal route. Therefore, P. berghei infected red blood cells were intraperitoneally injected into the mice from the blood diluted with TC medium so that each 0.2 ml had approximately 106-107 infected red cells (parasite per kg of body weight). Each mouse was infected with single inoculums of 0.2 ml blood.
The 4-day procedures were started on Mondays while blood smears for parasitemia were collected on Fridays. The infected mice were weighed, randomly divided into treatment, vehicle and standard drug groups. […] The compounds were administered through intra gastric route using the stomach tube to ensure the safe ingestion of the compounds and the vehicle.
Thin smears of blood films were obtained from the peripheral blood on the tail from each mouse on day four after infection. The smears were placed on microscopic slides, fixed with methanol and stained with Gemsa at pH 7.2, for parasitemia. […] The number of parasitized erythrocytes in each of the 10-50 such fields were counted three times and the average was calculated to give the Parasitemia of each individual animal. Percentage of suppression was calculated by using the following formula. % Suppression=(Parasitemia in negative control−Parasitemia in study group)/Parasitemia in negative control

Compound: O=C(/C=C/c1ccc(O)cc1)OC[C@H]1O[C@@H](Oc2c(-c3ccc(O)cc3)oc3cc(O)cc(O)c3c2=O)[C@H](O)[C@@H](O)[C@@H]1O [Tiliroside]
- IC50 [1]: 106 µM
- Day 4 % Suppression ([2]; 10 mg/kg daily for 4 days): 39.1%
- Day 5 % Suppression ([2]; 10 mg/kg daily for 4 days): 51.5%
- Day 6 % Suppression ([2]; 10 mg/kg daily for 4 days): 35.1%
- Day 4 % Suppression ([2]; 50 mg/kg daily for 4 days): 56.5%
- Day 5 % Suppression ([2]; 50 mg/kg daily for 4 days): 64.0%
- Day 6 % Suppression ([2]; 50 mg/kg daily for 4 days): 54.0%
- Day 4 % Suppression ([2]; 100 mg/kg daily for 4 days): 34.7%
- Day 5 % Suppression ([2]; 100 mg/kg daily for 4 days): 39.3%
- Day 6 % Suppression ([2]; 100 mg/kg daily for 4 days): 21.6%
- Day 4 % Suppression ([2]; 200 mg/kg daily for 4 days): 21.7%
- Day 5 % Suppression ([2]; 200 mg/kg daily for 4 days): 30.3%
- Day 6 % Suppression ([2]; 200 mg/kg daily for 4 days): 18.9%
- Day 5 % Suppression ([2]; 400 mg/kg daily for 4 days): 9.0%
- maximum suppression ratio ([2]; maximum over doses and days): 60%
